One block for each molecule: values may come before it.
Experiments:
[1] = target: T1, Muscle, skeletal receptor tyrosine-protein kinase (Homo sapiens) (UniProt O15146); test: Inhibition of human recombinant MUSK at 500 nM in presence of ATP by radiometric assay relative to control
T1 sequence (whole entry): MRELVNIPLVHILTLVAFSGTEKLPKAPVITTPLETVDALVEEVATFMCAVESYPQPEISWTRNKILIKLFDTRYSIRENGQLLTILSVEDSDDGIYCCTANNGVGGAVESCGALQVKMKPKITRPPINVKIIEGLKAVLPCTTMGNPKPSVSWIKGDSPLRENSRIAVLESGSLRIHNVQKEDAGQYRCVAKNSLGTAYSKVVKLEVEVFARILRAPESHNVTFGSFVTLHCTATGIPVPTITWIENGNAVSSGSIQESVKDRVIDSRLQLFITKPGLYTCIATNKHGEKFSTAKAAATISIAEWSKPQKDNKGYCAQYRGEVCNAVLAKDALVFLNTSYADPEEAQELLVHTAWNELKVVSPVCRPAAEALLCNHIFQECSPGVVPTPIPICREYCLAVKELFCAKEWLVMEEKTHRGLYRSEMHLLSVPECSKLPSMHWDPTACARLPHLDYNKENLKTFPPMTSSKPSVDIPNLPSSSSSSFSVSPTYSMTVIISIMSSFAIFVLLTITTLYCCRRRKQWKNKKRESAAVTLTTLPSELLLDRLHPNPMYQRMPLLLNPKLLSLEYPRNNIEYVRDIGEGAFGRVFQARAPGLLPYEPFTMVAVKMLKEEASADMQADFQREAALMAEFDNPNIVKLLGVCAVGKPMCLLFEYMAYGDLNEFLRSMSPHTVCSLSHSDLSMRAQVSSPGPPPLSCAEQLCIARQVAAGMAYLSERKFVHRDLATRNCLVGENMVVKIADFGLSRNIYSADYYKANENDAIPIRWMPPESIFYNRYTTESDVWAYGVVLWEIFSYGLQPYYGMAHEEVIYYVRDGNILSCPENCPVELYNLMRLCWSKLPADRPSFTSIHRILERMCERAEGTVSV

[2] = target: T2, Receptor-interacting serine/threonine-protein kinase 1 (Homo sapiens) (UniProt Q13546); test: Inhibition of human recombinant RIPK1 at 500 nM related to control ULK1
T2 sequence (whole entry): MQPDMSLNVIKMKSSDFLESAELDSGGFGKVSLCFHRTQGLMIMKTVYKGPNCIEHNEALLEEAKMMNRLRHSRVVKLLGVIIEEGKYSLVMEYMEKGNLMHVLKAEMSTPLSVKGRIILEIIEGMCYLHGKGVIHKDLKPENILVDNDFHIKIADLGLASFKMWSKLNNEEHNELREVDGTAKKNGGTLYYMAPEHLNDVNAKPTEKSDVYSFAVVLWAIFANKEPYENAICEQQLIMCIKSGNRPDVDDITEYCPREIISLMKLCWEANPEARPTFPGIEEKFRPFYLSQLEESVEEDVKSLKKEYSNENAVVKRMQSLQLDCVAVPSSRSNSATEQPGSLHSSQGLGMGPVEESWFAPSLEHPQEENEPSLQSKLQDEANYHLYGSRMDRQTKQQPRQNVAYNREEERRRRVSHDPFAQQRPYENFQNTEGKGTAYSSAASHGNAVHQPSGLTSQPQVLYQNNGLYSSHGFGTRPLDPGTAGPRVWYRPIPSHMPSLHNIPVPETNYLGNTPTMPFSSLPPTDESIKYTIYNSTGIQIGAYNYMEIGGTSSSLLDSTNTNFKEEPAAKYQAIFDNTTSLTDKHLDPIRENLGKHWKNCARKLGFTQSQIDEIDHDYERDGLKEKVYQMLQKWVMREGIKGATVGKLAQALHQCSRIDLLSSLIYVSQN

[3] = target: Wee1-like protein kinase (Homo sapiens) (UniProt P30291); test: Inhibition of human recombinant Wee1 at 500 nM related to control ULK1
[4] = target: Activin receptor type-2A (Homo sapiens) (UniProt P27037); test: Inhibition of human recombinant ACTR2 at 500 nM in presence of ATP by radiometric assay relative to control
[5] = target: T3, Ephrin type-A receptor 8 (Homo sapiens) (UniProt P29322); test: Inhibition of human recombinant EphA8 at 40 nM in presence of ATP by radiometric assay relative to control
T3 sequence (whole entry): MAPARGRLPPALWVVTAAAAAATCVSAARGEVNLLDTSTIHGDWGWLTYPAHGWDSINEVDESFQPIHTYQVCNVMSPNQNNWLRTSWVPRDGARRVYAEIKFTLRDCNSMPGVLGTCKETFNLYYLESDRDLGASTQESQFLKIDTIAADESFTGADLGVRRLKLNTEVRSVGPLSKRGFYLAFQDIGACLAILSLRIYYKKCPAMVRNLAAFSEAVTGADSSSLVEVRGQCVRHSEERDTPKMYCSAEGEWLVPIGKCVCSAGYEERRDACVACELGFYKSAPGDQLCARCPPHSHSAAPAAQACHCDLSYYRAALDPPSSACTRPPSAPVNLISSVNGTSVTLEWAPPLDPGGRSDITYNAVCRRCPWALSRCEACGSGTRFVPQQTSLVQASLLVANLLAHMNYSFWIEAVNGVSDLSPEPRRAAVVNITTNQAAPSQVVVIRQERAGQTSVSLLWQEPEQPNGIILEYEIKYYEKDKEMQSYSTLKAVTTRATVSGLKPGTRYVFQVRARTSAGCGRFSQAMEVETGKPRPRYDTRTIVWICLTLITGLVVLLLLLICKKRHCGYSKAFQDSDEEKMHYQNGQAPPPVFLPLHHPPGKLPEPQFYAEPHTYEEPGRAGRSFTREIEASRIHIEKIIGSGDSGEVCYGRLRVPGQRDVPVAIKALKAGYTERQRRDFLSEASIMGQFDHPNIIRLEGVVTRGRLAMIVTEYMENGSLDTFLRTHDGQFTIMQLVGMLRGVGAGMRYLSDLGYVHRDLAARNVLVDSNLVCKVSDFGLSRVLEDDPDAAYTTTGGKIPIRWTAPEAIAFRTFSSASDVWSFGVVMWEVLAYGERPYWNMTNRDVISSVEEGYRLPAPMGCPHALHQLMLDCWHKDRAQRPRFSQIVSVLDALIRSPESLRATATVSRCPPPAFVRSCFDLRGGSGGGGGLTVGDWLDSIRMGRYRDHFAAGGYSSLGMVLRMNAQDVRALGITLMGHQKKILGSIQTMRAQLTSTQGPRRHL

[6] = target: STE20-like serine/threonine-protein kinase (Homo sapiens) (UniProt Q9H2G2); test: Inhibition of human recombinant SLK at 15 nM in presence of ATP by radiometric assay relative to control

inhibition [1]: 34% | fold change (FC) [2]: 0.09 | fold change (FC) [3]: 0.22 | inhibition [4]: 3%
Compound: CNC(=O)c1ccccc1Oc1nc(Nc2cc(OC)c(OC)c(OC)c2)ncc1Br

inhibition [5]: 0%
Compound: O=C(N[C@@H](C1CC1)C(F)(F)F)c1cc(-c2cnn3cc(-c4ccc(F)cc4)cnc23)cs1

inhibition [6]: 22%
Compound: CC(C)[C@H](NC(=O)c1cc(-c2cnn3cc(-c4ccc(OCCN5CCCCC5)cc4)cnc23)cs1)C(F)(F)F

Source: ChEMBL document CHEMBL5653631, “A Potent and Selective ULK1 Inhibitor Suppresses Autophagy and Sensitizes Cancer Cells to Nutrient Stress” (iScience, 2018)
